According to patent publication US20170121344A1 (Siga Technologies, Inc., priority 2009, published 2017):

Key:
[1] = tested on: Dengue-2 (Strain New Guinea C); test: Viral yield assay against Dengue-2 in Vero cells; type: cell-based, Dengue virus; conditions: Dengue virus; Vero cells, MOI 0.1, harvested 48 hours post infection; read-out: Activity (EC50 class) against Dengue-2 Virus in Vero cells
Outline: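 Yield reduction, Vero; MOI 0.1; compound vs DMSO; 37° C; harvest 48 h p.i.; titer on Vero; EC50 fitted. Other serotypes run the same way.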

four serotypes of dengue = test: Yield assays against each of the four serotypes of dengue; type: cell-based, Dengue virus; conditions: all four serotypes
Description: Initially, the chemical structures of the hit compounds were examined for chemical tractability. […] Hits that passed this medicinal chemistry filter were evaluated for their potency. Compound potency was determined by evaluating inhibitory activity across a broad range of concentrations. Nonlinear regression was used to generate best-fit inhibition curves and to calculate the 50% effective concentration (EC50). The selectivity or specificity of a given compound is typically expressed as a ratio of its cytotoxicity to its biological effect. A cell proliferation assay is used to calculate a 50% cytotoxicity concentration (CC50); the ratio of this value to the EC50 is referred to as the therapeutic index (T.I.=CC50/EC50). Two types of assays have been used to determine cytotoxicity, both of which are standard methods for quantitating the reductase activity produced in metabolically active cells (22). […] Verification that these compounds act against each of the four serotypes of dengue was done with yield assays carried out at several drug concentrations, and the titer determined for each.
Compounds that were active in the primary screen were tested for activity in viral yield assays. […] The EC50 was calculated through ExcelFit. Activities against other serotypes of dengue virus were determined in a similar way.

In the case of `Nc1c(C(=O)Nc2nnc(-c3ccccc3)s2)sc2nc3c(cc12)CCCCC3` [Compound 1, 3-Amino-6,7,8,9-tetrahydro-5H-1-thia-10-aza-cyclohepta[f]indene-2-carboxylic acid (5-phenyl-[1,3,4]thiadiazol-2-yl)-amide], the EC50 [1] is reported as less than 5 µM and the “Activity against serotypes of dengue” value (four serotypes of dengue) is reported as “activity against all four serotypes of dengue”.
